Data on 63 molecules can be found in patent publication US12581252B2, “Substituted pyrrolo[3,4-b]pyridines as PI3K-α inhibitors” (Relay Therapeutics, Inc., priority 2020, dated 2026).

The structures appear in SMILES notation. pIC50: −log10 of the molar value. Where only a bound is given, the exact number is not on record here.

The target of the experiment is H1047R PIK3CA enzyme (Homo sapiens, UniProt P42336, H1047R). The experiment in a line: ADP-Glo Biochemical PIK3CA Kinase Assay. For orientation: ADP-Glo first removes unused ATP, then detects ADP through luciferase.
Chain of H1047R PIK3CA enzyme (P42336 whole entry H1047R): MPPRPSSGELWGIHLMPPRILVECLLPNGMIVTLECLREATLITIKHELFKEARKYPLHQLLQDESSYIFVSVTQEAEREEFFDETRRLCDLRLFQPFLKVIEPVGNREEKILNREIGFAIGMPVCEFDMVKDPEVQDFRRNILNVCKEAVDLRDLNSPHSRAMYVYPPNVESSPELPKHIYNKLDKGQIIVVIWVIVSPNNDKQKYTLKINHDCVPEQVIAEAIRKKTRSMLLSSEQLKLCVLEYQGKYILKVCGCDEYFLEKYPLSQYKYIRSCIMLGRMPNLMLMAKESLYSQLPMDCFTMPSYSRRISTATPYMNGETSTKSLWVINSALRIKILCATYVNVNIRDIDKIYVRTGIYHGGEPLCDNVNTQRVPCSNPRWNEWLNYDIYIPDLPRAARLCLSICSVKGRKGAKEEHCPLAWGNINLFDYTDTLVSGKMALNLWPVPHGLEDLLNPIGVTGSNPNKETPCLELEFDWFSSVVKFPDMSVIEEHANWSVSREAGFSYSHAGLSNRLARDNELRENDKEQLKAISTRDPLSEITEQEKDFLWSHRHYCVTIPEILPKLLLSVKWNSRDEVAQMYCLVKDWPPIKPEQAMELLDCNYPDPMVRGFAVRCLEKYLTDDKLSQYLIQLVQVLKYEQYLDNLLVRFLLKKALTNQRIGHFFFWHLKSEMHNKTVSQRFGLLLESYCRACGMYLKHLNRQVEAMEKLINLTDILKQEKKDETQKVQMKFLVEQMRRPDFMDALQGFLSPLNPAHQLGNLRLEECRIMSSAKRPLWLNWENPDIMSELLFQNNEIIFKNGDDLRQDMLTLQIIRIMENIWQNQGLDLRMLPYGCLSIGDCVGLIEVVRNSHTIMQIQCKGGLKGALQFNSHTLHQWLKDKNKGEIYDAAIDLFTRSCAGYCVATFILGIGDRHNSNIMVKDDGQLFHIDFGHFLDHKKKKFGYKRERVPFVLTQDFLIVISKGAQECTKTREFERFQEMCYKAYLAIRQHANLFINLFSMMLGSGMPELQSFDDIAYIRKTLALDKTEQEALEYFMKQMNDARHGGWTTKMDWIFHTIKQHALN
Chain of H1047R PIK3CA enzyme (P27986 whole entry partner): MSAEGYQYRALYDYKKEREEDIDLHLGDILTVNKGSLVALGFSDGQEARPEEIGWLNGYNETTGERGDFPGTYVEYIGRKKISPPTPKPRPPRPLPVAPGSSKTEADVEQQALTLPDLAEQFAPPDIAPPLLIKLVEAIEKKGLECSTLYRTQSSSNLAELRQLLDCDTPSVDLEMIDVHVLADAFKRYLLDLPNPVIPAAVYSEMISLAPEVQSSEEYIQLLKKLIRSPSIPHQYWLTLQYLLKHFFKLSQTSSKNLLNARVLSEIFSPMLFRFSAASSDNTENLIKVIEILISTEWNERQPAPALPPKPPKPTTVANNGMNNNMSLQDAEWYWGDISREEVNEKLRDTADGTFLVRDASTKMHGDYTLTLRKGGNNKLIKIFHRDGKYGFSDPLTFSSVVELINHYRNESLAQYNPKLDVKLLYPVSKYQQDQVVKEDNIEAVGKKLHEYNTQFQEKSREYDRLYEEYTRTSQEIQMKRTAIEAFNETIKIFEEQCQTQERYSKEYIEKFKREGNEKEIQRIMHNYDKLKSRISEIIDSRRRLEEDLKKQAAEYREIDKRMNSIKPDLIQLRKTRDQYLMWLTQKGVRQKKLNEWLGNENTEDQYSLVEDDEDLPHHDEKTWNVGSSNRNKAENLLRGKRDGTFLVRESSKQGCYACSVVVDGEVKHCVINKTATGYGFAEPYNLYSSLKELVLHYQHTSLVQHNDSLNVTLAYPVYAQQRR
In general, pIC50 refers to the IC50 on a negative log10 scale, so that one unit is a factor of ten. Read a high pIC50 as a low IC50. `O=C(Nc1cc(Br)cc2c1[C@@H](c1cccc(F)c1Cl)NC2=O)c1cc(F)cc(C(F)(F)F)c1` [Compound I-667]: the pIC50 was 5.00 to 6.00.

In the case of `Cn1ccc2ccc(C(=O)Nc3cc(Br)cc4c3C(c3cc(F)ccc3Cl)NC4=O)cc21` (stereo not drawn) [Compound I-668], the pIC50 was 5.00 to 6.00.

`O=C(Nc1cc(Br)cc2c1[C@H](c1cccc(F)c1Cl)NC2=O)c1cc(F)cc(C(F)(F)F)c1` [Compound I-669]: the negative-log IC50 (pIC50) was at least 7.00.

As to `Cn1ccc2c(C(=O)Nc3cc(Br)cc4c3C(c3cc(F)ccc3Cl)NC4=O)cccc21` (stereo not drawn) [Compound I-670], the negative-log IC50 (pIC50) was 4.00 to 5.00.

`O=C(Nc1cc(Br)cc2c1[C@@H](c1cc(F)ccc1F)NC2=O)c1cc(F)cc(C(F)(F)F)c1` [Compound I-671]: the negative logarithm of the IC50 (pIC50) is 5.00 to 6.00.

The molecule `O=C(Nc1cc(Br)cc2c1C(c1cccc(F)c1Cl)NC2=O)c1cc(F)cc(C(F)(F)F)c1` (stereo not drawn) [Compound I-672] had a pIC50 of at least 7.00.

With `O=C1NC(c2cc(F)ccc2Cl)c2c(NC(=O)c3cncc4ccccc34)cc(Br)cc21` (stereo not drawn) [Compound I-673], the pIC50 is 5.00 to 6.00.

As to `O=C(Nc1cc(Br)cc2c1[C@H](c1cc(F)ccc1F)NC2=O)c1cc(F)cc(C(F)(F)F)c1` [Compound I-674], the negative-log IC50 (pIC50) was 6.30 to 7.00.

`O=C(Nc1cc(Br)cc2c1C(c1cc(F)ccc1F)NC2=O)c1cc(F)cc(C(F)(F)F)c1` (stereo not drawn) [Compound I-675] had a pIC50 of at least 7.00.

`O=C(Nc1cc(Br)cc2c1[C@@H](c1cc(F)c(F)cc1Cl)NC2=O)c1cc(F)cc(C(F)(F)F)c1` [Compound I-676] showed a pIC50 of 5.00 to 6.00.

As to `O=C(Nc1cc(Br)cc2c1[C@H](c1cc(F)c(F)cc1Cl)NC2=O)c1cc(F)cc(C(F)(F)F)c1` [Compound I-677], the pIC50 was at least 7.00.

In turn, `O=C(Nc1cc(Br)cc2c1C(c1cc(F)c(F)cc1Cl)NC2=O)c1cc(F)cc(C(F)(F)F)c1` (stereo not drawn) [Compound I-678] gave a pIC50 of at least 7.00.

`O=C(Nc1cc(Br)cc2c1[C@@H](c1c(F)cccc1Cl)NC2=O)c1cc(F)cc(C(F)(F)F)c1` [Compound I-679]: the pIC50 is 5.00 to 6.00.

`O=C(Nc1cc(Br)cc2c1[C@H](c1c(F)cccc1Cl)NC2=O)c1cc(F)cc(C(F)(F)F)c1` [Compound I-680] showed a negative logarithm of the IC50 (pIC50) of at least 7.00.

For `O=C(Nc1cc(Br)cc2c1C(c1c(F)cccc1Cl)NC2=O)c1cc(F)cc(C(F)(F)F)c1` (stereo not drawn) [Compound I-681], the negative-log IC50 (pIC50) was 5.00 to 6.00.

`O=C(Nc1cc(Br)cc2c1[C@H](c1cccc(F)c1F)NC2=O)c1cc(F)cc(C(F)(F)F)c1` [Compound I-682]: the pIC50 is 6.30 to 7.00.

Turning to `O=C(Nc1cc(Br)cc2c1[C@@H](c1cccc(F)c1F)NC2=O)c1cc(F)cc(C(F)(F)F)c1` [Compound I-683], the pIC50 is 5.00 to 6.00.

In turn, `O=C(Nc1cc(Br)cc2c1C(c1cccc(F)c1F)NC2=O)c1cc(F)cc(C(F)(F)F)c1` (stereo not drawn) [Compound I-684] showed a negative logarithm of the IC50 (pIC50) of 5.00 to 6.00.

In turn, `COc1cccc(C2NC(=O)c3cccc(NC(=O)c4cc(F)cc(C(F)(F)F)c4)c32)c1` (stereo not drawn) [Compound I-687] gave a pIC50 of 4.00 to 5.00.

In turn, `O=C(Nc1cc(Cl)cc2c1C(c1cc(F)ccc1Cl)NC2=O)c1cc(F)cc(C(F)(F)F)c1` (stereo not drawn) [Compound I-688] gave a pIC50 of at least 7.00.

`O=C(Nc1cc(C2COC2)nc2c1C(c1cc(F)ccc1Cl)NC2=O)c1cc(F)cc(C(F)(F)F)c1` (stereo not drawn) [Compound I-689] showed a pIC50 of 6.30 to 7.00.

`COCc1cc(NC(=O)c2cc(F)cc(C(F)(F)F)c2)c2c(c1)C(=O)N[C@@H]2c1cc(F)ccc1Cl` [Compound I-690]: the pIC50 is 6.30 to 7.00.

Molecule `Cc1ccccc1C1NC(=O)c2cc(C(F)F)cc(NC(=O)c3cc(F)cc(C(F)(F)F)c3)c21` (stereo not drawn) [Compound I-692] had a pIC50 of 6.30 to 7.00.

Molecule `O=C(Nc1cc(Br)cc2c1C(c1cc(F)ccc1Cl)NC2=O)c1cc(Cl)cc(F)c1Cl` (stereo not drawn) [Compound I-694] had a pIC50 of 5.00 to 6.00.

`N#CC1(CNc2cc(NC(=O)c3cc(F)cc(C(F)(F)F)c3)c3c(c2)C(=O)NC3c2cc(F)ccc2Cl)CC1` (stereo not drawn) [Compound I-695] showed a negative-log IC50 (pIC50) of at least 7.00.

In turn, `CC(C)(O)Cc1cc(F)cc(C(=O)Nc2cc(CC(C)(C)O)cc3c2C(c2cc(F)ccc2Cl)NC3=O)c1` (stereo not drawn) [Compound I-696] gave a pIC50 of 4.00 to 5.00.

On to `CCOC(=O)Cc1cc(F)cc(C(=O)Nc2cc(CC(=O)OCC)cc3c2C(c2cc(F)ccc2Cl)NC3=O)c1` (stereo not drawn) [Compound I-697], for which the negative-log IC50 (pIC50) was 5.00 to 6.00.

As to `O=C1NC(c2cc(F)ccc2Cl)c2c(NC(=O)N3CCOCC(F)(F)C3)cc(Br)cc21` (stereo not drawn) [Compound I-698], the negative logarithm of the IC50 (pIC50) is 4.00 to 5.00.

`CC(C)n1cc(-c2cc(NC(=O)c3cc(F)cc(C(F)(F)F)c3)c3c(c2)C(=O)NC3c2cc(F)ccc2Cl)ccc1=O` (stereo not drawn) [Compound I-699]: the negative-log IC50 (pIC50) is at least 7.00.

Regarding `O=C(Nc1cc(-c2ccc(=O)n(C3CC3)c2)cc2c1C(c1cc(F)ccc1Cl)NC2=O)c1cc(F)cc(C(F)(F)F)c1` (stereo not drawn) [Compound I-700], the pIC50 is at least 7.00.

In turn, `CCn1cc(-c2cc(NC(=O)c3cc(F)cc(C(F)(F)F)c3)c3c(c2)C(=O)N[C@@H]3c2cc(F)ccc2Cl)ccc1=O` [Compound I-703] gave a pIC50 of 4.00 to 5.00.

Turning to `CCn1cc(-c2cc(NC(=O)c3cc(F)cc(C(F)(F)F)c3)c3c(c2)C(=O)N[C@H]3c2cc(F)ccc2Cl)ccc1=O` [Compound I-704], the negative-log IC50 (pIC50) is at least 7.00.

As for `COc1ccc(-c2cc(NC(=O)c3cc(F)cc(C(F)(F)F)c3)c3c(c2)C(=O)NC3c2cc(F)ccc2Cl)cn1` (stereo not drawn) [Compound I-705], the pIC50 is at least 7.00.

As for `O=C(Nc1cc(CC2(O)CCC2)cc2c1C(c1cc(F)ccc1Cl)NC2=O)c1cc(F)cc(C(F)(F)F)c1` (stereo not drawn) [Compound I-706], the pIC50 was at least 7.00.

The molecule `O=C(Nc1cc(NCCO)cc2c1C(c1cc(F)ccc1Cl)NC2=O)c1cc(F)cc(C(F)(F)F)c1` (stereo not drawn) [Compound I-707] gave a pIC50 of at least 7.00.

`CC(=O)COc1cc(NC(=O)c2cc(F)cc(C(F)(F)F)c2)c2c(c1)C(=O)NC2c1cc(F)ccc1Cl` (stereo not drawn) [Compound I-708] gave a pIC50 of at least 7.00.

`CC(C)(O)COc1cc(NC(=O)c2cc(F)cc(C(F)(F)F)c2)c2c(c1)C(=O)NC2c1cc(F)ccc1Cl` (stereo not drawn) [Compound I-709] gave a pIC50 of at least 7.00.

Turning to `CC1(Cc2cc(NC(=O)c3cc(F)cc(C(F)(F)F)c3)c3c(c2)C(=O)NC3c2cc(F)ccc2Cl)COC1` (stereo not drawn) [Compound I-710], the negative-log IC50 (pIC50) is at least 7.00.

For `O=C1NC(c2cc(F)ccc2Cl)c2c(NC(=O)c3cc(F)cc4cc[nH]c34)cc(Br)cc21` (stereo not drawn) [Compound I-711], the pIC50 is at least 7.00.

With `O=C(Nc1cc(-c2ncc[nH]2)cc2c1C(c1cc(F)ccc1Cl)NC2=O)c1cc(F)cc(C(F)(F)F)c1` (stereo not drawn) [Compound I-712], the negative logarithm of the IC50 (pIC50) was at least 7.00.

For `CC(C)(O)c1cc(NC(=O)N2CCc3ccccc32)c2c(c1)C(=O)N[C@H]2c1cc(F)ccc1Cl` [Compound I-713], the pIC50 is at least 7.00.

`CC(C)(O)c1cc(NC(=O)N2CCc3ccccc32)c2c(c1)C(=O)N[C@@H]2c1cc(F)ccc1Cl` [Compound I-714] gave a negative logarithm of the IC50 (pIC50) of 4.00 to 5.00.

Molecule `Cc1ccccc1C1NC(=O)c2cccc(NC(=O)c3cc(F)cc(C(C)C)c3)c21` (stereo not drawn) [Compound I-715] had a pIC50 of 5.00 to 6.00.

`O=C1NC(c2cc(F)ccc2Cl)c2c(NC(=O)N3CCNc4ccccc43)cc(Br)cc21` (stereo not drawn) [Compound I-716] had a pIC50 of 5.00 to 6.00.

Regarding `O=C(Nc1cccc2c1C(c1cccc(B(O)O)c1)NC2=O)c1cc(F)cc(C(F)(F)F)c1` (stereo not drawn) [Compound I-717], the negative-log IC50 (pIC50) was 4.00 to 5.00.

The molecule `O=C(Nc1cccc2c1C(c1cccc(C3CC3)c1)NC2=O)c1cc(F)cc(C(F)(F)F)c1` (stereo not drawn) [Compound I-718] showed a pIC50 of 4.00 to 5.00.

The molecule `Nc1ccc(C(=O)Nc2cc(Br)cc3c2C(c2cc(F)ccc2Cl)NC3=O)cc1C(F)(F)F` (stereo not drawn) [Compound I-719] gave a pIC50 of 5.00 to 6.00.

For the molecule `O=C1NC(c2cc(F)ccc2Cl)c2c(NC(=O)N3CCCC4CCCC43)cc(Br)cc21` (stereo not drawn) [Compound I-722], the pIC50 was 6.30 to 7.00.

`N#CC1CN(c2cc(NC(=O)c3cc(F)cc(C(F)(F)F)c3)c3c(c2)C(=O)NC3c2cc(F)ccc2Cl)C1` (stereo not drawn) [Compound I-723] gave a pIC50 of at least 7.00.

Turning to `O=C(Nc1cccc2c1C(c1cc(F)ccc1Cl)NC2=O)c1cc(C(F)(F)F)cc(Cl)n1` (stereo not drawn) [Compound I-724], the pIC50 was 5.00 to 6.00.

The molecule `O=C(Nc1cccc2c1C(c1cc(F)ccc1Cl)NC2=O)c1cc(Cl)cc(C(F)(F)F)c1` (stereo not drawn) [Compound I-725] showed a negative-log IC50 (pIC50) of 6.00 to 6.30.

Take `Nc1cc(C(F)(F)F)cc(C(=O)Nc2cccc3c2C(c2cc(F)ccc2Cl)NC3=O)n1` (stereo not drawn) [Compound I-726]: the pIC50 is 5.00 to 6.00.

`Cn1c2c(c(NC(=O)c3cc(F)cc(C(F)(F)F)c3)cc1=O)C(c1cc(F)ccc1Cl)NC2=O` (stereo not drawn) [Compound I-727] had a pIC50 of 4.00 to 5.00.

`COC1CN(c2cc(NC(=O)c3cc(F)cc(C(F)(F)F)c3)c3c(c2)C(=O)NC3c2cc(F)ccc2Cl)C1` (stereo not drawn) [Compound I-728] showed a negative-log IC50 (pIC50) of 6.30 to 7.00.

Turning to `O=C(Nc1cc(N2CC3(COC3)C2)cc2c1C(c1cc(F)ccc1Cl)NC2=O)c1cc(F)cc(C(F)(F)F)c1` (stereo not drawn) [Compound I-729], the negative logarithm of the IC50 (pIC50) was at least 7.00.

Regarding `CC(C)(O)CNc1cc(NC(=O)c2cc(F)cc(C(F)(F)F)c2)c2c(c1)C(=O)NC2c1cc(F)ccc1Cl` (stereo not drawn) [Compound I-730], the pIC50 was at least 7.00.

Molecule `O=C1NC(c2cc(F)ccc2Cl)c2c(NC(=O)c3coc4c(F)cc(F)cc34)cc(Br)cc21` (stereo not drawn) [Compound I-731] had a negative logarithm of the IC50 (pIC50) of at least 7.00.

`Cc1ncc(-c2cc(NC(=O)c3cc(F)cc(C(F)(F)F)c3)c3c(c2)C(=O)NC3c2cc(F)ccc2Cl)cn1` (stereo not drawn) [Compound I-732] had a negative-log IC50 (pIC50) of at least 7.00.

On to `O=C1N[C@H](c2cc(F)ccc2Cl)c2c(NC(=O)c3csc4ccccc34)cc(Br)cc21` [Compound I-733], for which the negative-log IC50 (pIC50) is 5.00 to 6.00.

Molecule `O=C1N[C@@H](c2cc(F)ccc2Cl)c2c(NC(=O)c3csc4ccccc34)cc(Br)cc21` [Compound I-734] gave a pIC50 of at least 7.00.

The molecule `CS(=O)(=O)CCCOc1cc(NC(=O)c2cc(F)cc(C(F)(F)F)c2)c2c(c1)C(=O)NC2c1cc(F)ccc1Cl` (stereo not drawn) [Compound I-735] showed a negative-log IC50 (pIC50) of 6.30 to 7.00.

Molecule `O=C(Nc1cc(-c2ccc3nccn3c2)cc2c1C(c1cc(F)ccc1Cl)NC2=O)c1cc(F)cc(C(F)(F)F)c1` (stereo not drawn) [Compound I-736] gave a pIC50 of at least 7.00.

`O=C(Nc1cc(-c2ccc3ncccc3c2)cc2c1C(c1cc(F)ccc1Cl)NC2=O)c1cc(F)cc(C(F)(F)F)c1` (stereo not drawn) [Compound I-737] gave a pIC50 of at least 7.00.
